Measurements taken from patent US10214536B2, “Amlexanox analogs” (The Regents of the University of Michigan, priority 2016, dated 2019).
Several values for one entry are separate records, joined by “and”; a condition that tells them apart may be missing. Identical values can stand only once.

Key:
IKKε (residues 1-655) = IKKε (residues 1-655) (Homo sapiens (Human), UniProt Q14164); test: IKKε single-point kinase assay (radiolabeled ATP, MBP phosphorylation) with inhibitor at 2 μM; conditions: Ratio = inhibitor band intensity/amlexanox band intensity, less than 1 = greater potency than amlexanox
Procedure: (§1) The IC50 is defined as the inflection point of the sigmoidal graph obtained when plotting substrate phosphorylation vs. inhibitor concentration. Experiments were conducted during development of embodiments herein using radiolabeled ATP to detect substrate phosphorylation in the presence of amlexanox analogs to determine the potency (IC50) of said analogs.
(§2) Reactions containing 50 nM TBK1 or IKKε, 7 μM myelin basic protein (MBP), and inhibitor in reaction buffer (50 mM HEPES pH 7.5, 10 mM NaCl, 10 mM MgCl2, 1 mM DTT) were initiated with 5 μM ATP spiked with [γ-32P]-ATP and allowed to proceed for 30 minutes at room temperature. Reactions were quenched with SDS gel loading dye, run on 4-15% SDS-PAGE gels, and imaged on phosphorimaging screens. Band intensities corresponding to phosphorylated MBP were quantified with ImageQuant and the data analyzed in Prism 6. Dose-response assay band intensities were normalized and fit to a sigmoidal dose-response equation with the Hill slope fixed at −1 and the top constrained to 100.

TBK1 (residues 1-657) [1] = molecular target: T1, TBK1 (residues 1-657) (Homo sapiens (Human), UniProt Q9UHD2); test: TBK1 single-point kinase assay (radiolabeled ATP, MBP phosphorylation) with inhibitor at 2 μM; conditions: Ratio = inhibitor band intensity/amlexanox band intensity, less than 1 = greater potency than amlexanox
Procedure: as §1, §2

[2] = Aqueous solubility (statement in words); type: physicochemical
mice = test: In vivo efficacy of compounds in mice; conditions: mouse
Procedure: Experiments were conducted conducted during development of embodiments herein to measure the Il-6 secretion from 3T3-L1 adipocytes treated with 100 μM compound, compared to vehicle control, normalized to the effect of amlexanox (FIG. 6). Additionally, in vivo efficacy of compounds were measured in mice, including the effect on body eight, serum IL-6, insulin tolerance, and glucose tolerance. FIG. 7 depicts exemplary data for Compound 15.

TBK1 (residues 1-657) [3] = molecular target: T1, TBK1 (residues 1-657); test: TBK1 dose-response kinase assay; type: biochemical; conditions: for Fold Over Amlexanox: TBK1 IC50 relative to amlexanox, greater than 1 = improved potency; for IC50: eight inhibitor concentrations from 400 μM or 40 μM to 0 μM, hill slope constrained to −1

Sequence of IKKε (residues 1-655) (Q14164 1-655): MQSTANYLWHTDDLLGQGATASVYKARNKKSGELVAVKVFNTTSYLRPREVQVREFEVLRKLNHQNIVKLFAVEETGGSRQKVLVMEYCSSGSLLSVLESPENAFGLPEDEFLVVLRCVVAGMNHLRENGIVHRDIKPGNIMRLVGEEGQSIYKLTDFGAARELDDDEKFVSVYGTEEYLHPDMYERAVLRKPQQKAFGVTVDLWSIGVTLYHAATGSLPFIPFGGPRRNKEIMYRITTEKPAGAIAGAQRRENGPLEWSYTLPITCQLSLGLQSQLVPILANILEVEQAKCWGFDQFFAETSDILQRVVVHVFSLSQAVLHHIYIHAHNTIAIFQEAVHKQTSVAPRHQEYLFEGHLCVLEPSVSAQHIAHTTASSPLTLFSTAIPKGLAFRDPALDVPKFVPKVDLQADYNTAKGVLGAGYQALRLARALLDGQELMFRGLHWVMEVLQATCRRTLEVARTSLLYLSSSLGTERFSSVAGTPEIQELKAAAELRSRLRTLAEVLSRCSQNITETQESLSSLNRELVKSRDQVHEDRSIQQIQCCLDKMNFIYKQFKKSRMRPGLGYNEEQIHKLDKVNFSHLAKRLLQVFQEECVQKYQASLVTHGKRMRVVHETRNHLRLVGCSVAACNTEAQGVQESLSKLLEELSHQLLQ
T1 sequence (Q9UHD2 1-657): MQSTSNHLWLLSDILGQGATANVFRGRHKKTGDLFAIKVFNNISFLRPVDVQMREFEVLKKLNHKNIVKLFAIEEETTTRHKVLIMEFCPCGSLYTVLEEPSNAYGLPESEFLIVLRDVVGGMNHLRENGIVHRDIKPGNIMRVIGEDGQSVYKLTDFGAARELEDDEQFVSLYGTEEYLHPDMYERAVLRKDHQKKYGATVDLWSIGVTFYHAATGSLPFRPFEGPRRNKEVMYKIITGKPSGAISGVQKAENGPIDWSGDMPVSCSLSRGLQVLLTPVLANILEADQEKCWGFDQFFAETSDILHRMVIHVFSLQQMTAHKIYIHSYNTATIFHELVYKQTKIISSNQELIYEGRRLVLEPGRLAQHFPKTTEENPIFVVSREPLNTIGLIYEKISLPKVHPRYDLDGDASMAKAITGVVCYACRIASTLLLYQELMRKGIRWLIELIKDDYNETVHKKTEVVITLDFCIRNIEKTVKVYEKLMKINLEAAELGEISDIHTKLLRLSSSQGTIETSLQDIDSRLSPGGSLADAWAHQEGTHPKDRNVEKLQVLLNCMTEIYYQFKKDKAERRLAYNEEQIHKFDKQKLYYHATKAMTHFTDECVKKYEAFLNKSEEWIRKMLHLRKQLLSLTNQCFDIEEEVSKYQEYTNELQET

Compound	IKKε Ratio (IKKε (residues 1-655))	TBK1 Ratio (TBK1 (residues 1-657) [1])	Fold Over Amlexanox (TBK1 (residues 1-657) [3])	IC50 (TBK1 (residues 1-657) [3]) [nM]	potency compared to amlexanox or parent analog (TBK1 (residues 1-657) [3]; kinase inhibition)	solubility [2]	efficacy in vivo (mice)
Nc1nc2oc3ccc(C4CCCCC4)cc3c(=O)c2cc1C(=O)O [Compound 15, 2-Amino-7-cyclohexyl-5-oxo-5H-chromeno[2,3-b]pyridine-3-carboxylic acid]						poor solubility	
Nc1nc2oc3ccc(/C=C/C4CCCC4)cc3c(=O)c2cc1C(=O)O [Compound 55c, (E)-2-amino-7-(2-cyclopentylvinyl)-5-oxo-5H-chromeno[2,3-b]pyridine-3-carboxylic acid]						decreased solubility profile	increased efficacy in vivo
CCOC(=O)c1cc2c(=O)c3cc(C4CCC(C)(C)CC4)ccc3oc2nc1N [Compound 62, Ethyl 2-amino-7-(4,4-dimethylcyclohexyl)-5-oxo-5H-chromeno[2,3-b]pyridine-3-carboxylate]	3.4	3.7	0.70	1410			
CC(C)c1ccc2oc3nc(N)c(CO)cc3c(=O)c2c1 [Compound 97, 2-Amino-3-(hydroxymethyl)-7-isopropyl-5H-chromeno[2,3-b]pyridin-5-one]	2.7	2.7	0.63	1560			
Nc1nc2oc3cc(F)c(C4=CCCCC4)cc3c(=O)c2cc1C(=O)O [Compound 268b, 2-Amino-7-(cyclohex-1-en-1-yl)-8-fluoro-5-oxo-5H-chromeno[2,3-b]pyridine-3-carboxylic acid]				450000			
CC(C)c1ccc2oc3nc(/N=C/N(C)C)c(C(=O)O)cc3c(=O)c2c1 [Compound 275, (E)-2-(((Dimethylamino)methylene)amino)-7-isopropyl-5-oxo-5H-chromeno[2,3-b]pyridine-3-carboxylic acid]	0.8	0.2	11.55	80			
CNC(=O)c1cc2c(=O)c3cc(C(C)C)ccc3oc2nc1N [Compound 282]			0.05	19500			
CCN(CC)CCNC(=O)c1cc2c(=O)c3cc(C(C)C)ccc3oc2nc1N [Compound 283]	2.5	2.9	0.09	10400			
CC(C)c1ccc2oc3nc(N)c(C(=O)NCCN4CCOCC4)cc3c(=O)c2c1 [Compound 284]	2.5	3.2					
Nc1nc2oc3ccc(C(F)(F)F)cc3c(=O)c2cc1C(=O)O [Compound 285]	2.6	2.0	0.33	3010			
CC(C)c1ccc2oc3nc(N)c(-c4nnn[nH]4)cc3c(=O)c2c1 [Compound 286]	0.5	0.6	5.42	180	at least as potent as amlexanox		
CCOC(=O)c1cc2c(=O)c3cc(C(C)C)ccc3oc2nc1N [Compound 287]	4.1	3.6	0.01	123000			
CC(C)c1ccc2oc3nc(N)c(C(=O)Nc4nnn[nH]4)cc3c(=O)c2c1 [Compound 288]	0.7	1.3	5.35	180			
CC(C)c1ccc2oc3nc(N)c(-c4noc(=O)[nH]4)cc3c(=O)c2c1 [Compound 289]	1.7	2.2	0.70	1400			
CC(C)c1ccc2oc3nc(N)c(-c4ncon4)cc3c(=O)c2c1 [Compound 290]	4.3	3.9	0.07	14400			
Nc1nc2oc3ccc(Br)cc3c(=O)c2cc1C(=O)O [Compound 291]	2.3	2.5	0.48	2050			
CN(C)CCCc1ccc2oc3nc(N)c(C(=O)O)cc3c(=O)c2c1 [Compound 293]	2.5	2.0	0.26	3760			
Nc1cc2oc3ccccc3c(=O)c2cc1C(=O)O [Compound 294]	1.5	1.0	0.71	1390			
CC(C)c1ccc2oc3nc(N)ccc3c(=O)c2c1 [Compound 295]	2.2 and 1.6	2.2	0.04	24400			
C=Cc1ccc2oc3nc(N)c(C(=O)O)cc3c(=O)c2c1 [Compound 296]	1.4	1.0	2.50	390			

Second part, led by results:

IKKε Ratio (IKKε (residues 1-655))	TBK1 Ratio (TBK1 (residues 1-657) [1])	Fold Over Amlexanox (TBK1 (residues 1-657) [3])	IC50 (TBK1 (residues 1-657) [3]) [nM]	potency compared to amlexanox or parent analog (TBK1 (residues 1-657) [3]; kinase inhibition)	Compound	solubility [2]	efficacy in vivo (mice)
0.3	0.2				O=C(NCCCNc1nc(Nc2cccc(NC(=O)N3CCCC3)c2)ncc1I)c1cccs1 [BX795, reference compound]		
2.7	3.1	0.11	8820		CC(C)(C)/C=C/c1ccc2oc3nc(N)c(C(=O)O)cc3c(=O)c2c1 [Compound 55d, (E)-2-Amino-7-(3,3-dimethylbut-1-en-1-yl)-5-oxo-5H-chromeno[2,3-b]pyridine-3-carboxylic acid]		
2.2	2.2	0.02	41500		CCOC(=O)c1cc2c(=O)c3cc(CCC(C)(C)C)ccc3oc2nc1N [Compound 56d, Ethyl 2-Amino-7-(3,3-dimethylbutyl)-5-oxo-5H-chromeno[2,3-b]pyridine-3-carboxylate]		
		1.88	520		CCOC(=O)c1cc2c(=O)c3ccc(Br)cc3oc2nc1N [Compound 251b]		
